Here are results for 7 molecules from article PMC5874590, “The Occurrence of Flavonoids and Related Compounds in Cedrus brevifolia A. Henry ex Elwes & A. Henry Needles. Inhibitory Potencies on Lipoxygenase, Linoleic Acid Lipid Peroxidation and Antioxidant Activity” (Plants, 2017).

SMILES strings stand for the structures.

One experiment addresses T1, soybean lipoxygenase (LOX) (Glycine max, UniProt P08170).
T1 construct: gene LOX1.1; commercial native soybean enzyme (Sigma), catalogue number or type not given; 13-hydroperoxylinoleate product points to LOX-1
T1 sequence (P08170 1-839): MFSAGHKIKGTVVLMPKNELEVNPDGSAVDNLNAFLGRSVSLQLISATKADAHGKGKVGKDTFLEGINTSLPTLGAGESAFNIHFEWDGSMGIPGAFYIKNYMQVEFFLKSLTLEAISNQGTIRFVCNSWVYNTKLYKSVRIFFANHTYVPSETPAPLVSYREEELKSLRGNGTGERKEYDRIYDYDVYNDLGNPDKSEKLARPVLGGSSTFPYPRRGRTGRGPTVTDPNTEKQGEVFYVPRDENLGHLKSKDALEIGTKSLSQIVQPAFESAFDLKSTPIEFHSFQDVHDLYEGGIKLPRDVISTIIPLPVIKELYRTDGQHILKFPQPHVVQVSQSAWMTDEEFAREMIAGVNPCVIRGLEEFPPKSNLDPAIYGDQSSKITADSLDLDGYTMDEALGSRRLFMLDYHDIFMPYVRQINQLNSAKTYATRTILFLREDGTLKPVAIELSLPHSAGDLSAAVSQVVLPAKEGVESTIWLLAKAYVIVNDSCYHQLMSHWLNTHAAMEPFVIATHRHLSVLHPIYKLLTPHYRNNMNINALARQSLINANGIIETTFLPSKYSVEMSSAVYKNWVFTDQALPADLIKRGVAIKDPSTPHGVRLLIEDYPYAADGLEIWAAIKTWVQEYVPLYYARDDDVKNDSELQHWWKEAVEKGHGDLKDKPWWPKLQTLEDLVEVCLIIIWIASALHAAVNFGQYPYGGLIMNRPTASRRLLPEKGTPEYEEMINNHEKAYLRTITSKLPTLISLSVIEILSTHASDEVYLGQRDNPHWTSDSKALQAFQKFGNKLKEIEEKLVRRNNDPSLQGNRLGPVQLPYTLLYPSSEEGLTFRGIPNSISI
The experiment in a line: UV absorbance at […] nm. To be noted: room temperature; product 13-hydroperoxylinoleate. Type of experiment: biochemical.
Consider `CCCCC/C=C\C/C=C\CCCCCCCC(=O)O` [sodium linoleate], for which the “UV absorbance at 234 nm” value was “The transformation of sodium linoleate to 13-hydroperoxylinoleate sodium was measured spectrophotometrically”.

In the next experiment the target is T1, soybean lipoxygenase (LOX). As to the kind of experiment: UV absorbance at […] nm. Conditions: 0.1 mM compound; sodium linoleate; room temperature. It is filed as biochemical.
In the case of `O=C(O[C@@H]1O[C@H](CO)[C@@H](O)[C@H](O)[C@H]1O)c1ccccc1` [compound 5, benzoate glucoside], the “% LOX ± SD Inhbt @ (0.1 mM)” value was 29 ± 1.1%.
As to `O=C(O)/C=C/c1ccc(O)cc1` [compound 13, p-coumaric acid], the “% LOX ± SD Inhbt @ (0.1 mM)” value was determined as 18 ± 0.6%.
With `O=C(O)/C=C/c1ccc(O[C@@H]2O[C@H](CO)[C@@H](O)[C@H](O)[C@H]2O)cc1` [compound 14, 4-O-β-D-glucopyranyl trans-p-coumaric acid], the “% LOX ± SD Inhbt @ (0.1 mM)” value was 100 ± 2.5%.
For `CC1=CC(=O)CC(C)(C)[C@@]1(O)/C=C/C(C)=C\CO[C@@H]1O[C@H](CO)[C@@H](O)[C@H](O)[C@H]1O` [compound 16, abscisic alcohol glucoside], the “% LOX ± SD Inhbt @ (0.1 mM)” value is 25±1.2%.
`C[C@@H]1O[C@@H](OC[C@H]2O[C@@H](Oc3c(-c4ccc(O)cc4)oc4cc(O)cc(O)c4c3=O)[C@H](O)[C@@H](O)[C@@H]2O)[C@H](O)[C@H](O)[C@H]1O` [compound 17, kaempferol-3-O-β-rutinoside]: the “% LOX ± SD Inhbt @ (0.1 mM)” value turned out to be 46 ± 1.0%.
Turning to `O=C(/C=C/c1ccc(O)cc1)OC[C@H]1O[C@@H](Oc2c(-c3ccc(O)cc3)oc3cc(O)cc(O)c3c2=O)[C@H](O)[C@@H](O)[C@@H]1O` [compound 19, tiliroside], the “% LOX ± SD Inhbt @ (0.1 mM)” value is listed as 8 ± 0.3%.
